Here are results for 5 compounds from patent US20240270723A1, “SUBSTITUTED HETEROCYCLIC COMPOUNDS” (BRISTOL-MYERS SQUIBB COMPANY, priority 2021, published 2024).

Series [1] concerns IFNα-induced pSTAT5 in human whole blood (CD3 positive population). Description: IFNα-Induced STAT Phosphorylation in Human Whole Blood. In kind it is cell-based. Particulars: 1 h incubation with compound, 1000 U/mL IFNα A/D for 15 min, pSTAT5 in CD3 positive cells, read-out: Human Whole blood IFNa pSTAT5 IC50. On the procedure:
IFNα-Induced STAT Phosphorylation in Human Whole Blood
After an hour long incubation with compound, human whole blood (drawn with ACD-A as anticoagulant) was stimulated with 1000 U/mL recombinant human IFNα A/D (R&D Systems 11200-2) for 15 min. The stimulation was stopped by adding Fix/Lyse buffer (BD 558049). Cells were stained with a CD3 FITC antibody (BD 555916), washed, and permeabilized on ice using Perm III buffer (BD 558050). Cells were then stained with an Alexa-Fluor 647 pSTAT5 (pY694) antibody (BD 612599) for 60 min prior to analysis on the iQue Plus. The amount of pSTAT5 expression was quantitated by median fluorescence intensity after gating on the CD3 positive population.

The nature of a further series: in vitro. Particulars: human, Caco-2, pH 7.4.

For the compound `[2H]C([2H])([2H])NC(=O)c1nnc(NC(=O)C2CC2)cc1Nc1ncnc(-c2cnn(C)n2)c1OC` [Example 1, 6-(cyclopropanecarboxamido)-4-((5-methoxy-6-(2-methyl-2H-1,2,3-triazol-4-yl)pyrimidin-4-yl)amino)-N-(methyl-d3)pyridazine-3-carboxamide], the IC50 (usually the point on the concentration scale where inhibition reaches its midpoint) in series [1] came out at 320 nM. In “in vitro”, the Papp A→B (commonly the apparent permeability from the apical to the basolateral side of a cell layer) at 2 h, 3 μM stood at 26.1 ×10⁻⁶ cm/s and the efflux ratio (commonly a quotient of directional permeabilities that is used to spot active efflux) at 2 h, 3 μM is 1.8.
For `[2H]C([2H])([2H])NC(=O)c1nnc(NC(=O)C2CC2)cc1Nc1ccnc(-c2cnn(C)n2)c1OC` [Example 2, 6-(cyclopropanecarboxamido)-4-((3-methoxy-2-(2-methyl-2H-1,2,3-triazol-4-yl)pyridin-4-yl)amino)-N-(methyl-d3)pyridazine-3-carboxamide], the IC50 in series [1] was found to be 50 nM. Besides, in the series “in vitro”, the Papp A→B at 2 h, 3 μM came out at 12.2 ×10⁻⁶ cm/s and the efflux ratio at 2 h, 3 μM was 4.9.
Take `[2H]C([2H])([2H])NC(=O)c1nnc(NC(=O)C2CC2)cc1Nc1ccnc(-c2cnn(C3CC3)n2)c1OC` [Example 3, 6-(cyclopropanecarboxamido)-4-((2-(2-cyclopropyl-2H-1,2,3-triazol-4-yl)-3-methoxypyridin-4-yl)amino)-N-(methyl-d3)pyridazine-3-carboxamide]: the IC50 in series [1] amounted to 190 nM. In “in vitro”, the Papp A→B at 2 h, 3 μM came out at 9.8 ×10⁻⁶ cm/s and the efflux ratio at 2 h, 3 μM was 3.3.
In the same order, the values of `[2H]C([2H])([2H])NC(=O)c1nnc(NC(=O)C2CC2)cc1Nc1ccnc(-c2cnn(C3CC3)c2)c1OC` [Example 4, 6-(cyclopropanecarboxamido)-4-((2-(1-cyclopropyl-1H-pyrazol-4-yl)-3-methoxypyridin-4-yl)amino)-N-(methyl-d3)pyridazine-3-carboxamide] are 350 nM, 13.8 ×10⁻⁶ cm/s and 2.8.
`[2H]C([2H])([2H])NC(=O)c1nnc(NC(=O)C2CC2)cc1Nc1cncc(-c2cnn(C3CC3)n2)c1OC` [Example 5, 6-(cyclopropanecarboxamido)-4-((5-(2-cyclopropyl-2H-1,2,3-triazol-4-yl)-4-methoxypyridin-3-yl)amino)-N-(methyl-d3)pyridazine-3-carboxamide]: the IC50 in series [1] stood at 1090 nM. Also, in the series “in vitro”, the Papp A→B at 2 h, 3 μM worked out at 34.2 ×10⁻⁶ cm/s and the efflux ratio at 2 h, 3 μM is 1.1.
